According to US20250134862A1, “PROCESS FOR TREATING LIVESTOCK EXPOSED TO TOXIC FORAGE USING MELATONIN COMPOSITIONS” (BOARD OF TRUSTEES OF THE UNIVERSITY OF ARKANSAS, priority 2022, published 2025):

Key:
[1] = tested on: pregnant heifers consuming endophyte-infected (E+) tall fescue seed and their offspring; assay: Example 1: gestation length and body weights of calves born to dams fed tall fescue seed with or without melatonin; type: in vivo, cattle
Description: Fifty-seven (n=57) pregnant heifers artificially inseminated with sex-sorted semen (X chromosome-bearing sperm) from a single Angus sire were maintained at the Savoy Unit at the University of Arkansas on Bermuda grass pastures and supplemented as needed during the first 4-5 months of gestation. After that time, pregnant heifers were housed in a barn at the Savoy Unit (FIG. 1) having a controlled feeding system (SmartFeed Pro, C-Lock, Inc.). The controlled feeding system used radio frequency identification to control feed mixtures and intake for heifers.
(§1) After the training period, the heifers started a 70-day feeding trial (FIG. 2) to evaluate the influence of toxic fescue and melatonin on the developing fetus. To mimic the natural peak of ergot alkaloids in Kentucky 31 fescue, toxic fescue seed was fed with or without melatonin during the 70-day period between May and July. The feed trial period diet consisted of an ad libitum Bermuda grass hay and one of four (4) feed rations. The trial utilized a 2×2 factorial treatment arrangement (E− without melatonin, E−/NM; E− with melatonin, E−/M; E+ without melatonin, E+/NM; or E+ with melatonin, E+/M; melatonin dose: 100 μg/kg of BW) for a 70-d period between May and July starting at 160±13 days of gestation to mimic ergot alkaloid concentrations (ergot alkaloid dose: 13 μg/kg of BW) in a grazing scenario (FIG. 2). Each of the four feed ration treatments was represented in each of the two pens/groups of cattle (FIG. 1). All diets contained corn gluten and molasses and were fed using SmartFeed Pro (C-Lock Inc.) controlled feeding units between 0900 and 1400 h daily. Cattle were removed from dietary treatments 39±19 days before calving. Two replicates were housed separately in the open-air barn (FIG. 1), each with a 1.2-ha paddock. Before and following the 70-d treatment period, all cattle were maintained as a single group free from toxic fescue.
(§2) Powdered melatonin (Cayman Chemical Company) was mixed into 100% ethanol and mixed with feed (fescue seed, corn gluten, and molasses) in a concrete mixer until the feed was dry (ethanol evaporates, and melatonin remains). Melatonin was dosed at about 100 μg/kg of body weight or about 50 mg/head/day for all groups. Ad libitum Bermuda grass hay was offered in an adjacent pasture area to encourage animals to leave the barn after consuming the feed ration during both the training and the feed trial period. After completion of the feed trial, heifers were maintained on fescue-free pastures at the Physiology Farm and supplemented as needed through calving and until their calves were weaned.
Calf body weight was recorded at birth, and calves were tagged for identification purposes. Blood samples were collected from calves at 12±2 days of age via jugular venipuncture (four 10 mL purple top tubes and one 4 mL purple top tube). At weaning, body weight was recorded, and blood samples were collected via jugular venipuncture (four 10 mL purple top tubes and one 4 mL purple top tube). Vaccinations were administered to calves according to normal procedures at the Savoy Unit. Heifers and calves were maintained according to standard procedures at the Savoy Unit and the Physiology Farm.
Calves were weaned at 226±19 d of age. Gestation length, calf birth weight, 205-day adjusted weaning weight (205-d WW), carcass ultrasonography measures (ribeye area, REA: REA/CWT), percent intramuscular fat (IMF), rib fat thickness (UFAT), rump fat thickness (URUMP), post-weaning weights (recorded every 28 days between weaning and 84 days post-weaning), and post-weaning average daily gain (ADG) (between weaning and 84 days post-weaning) were evaluated in offspring (n=44) (FIGS. 6-13). Post-weaning calf weights were analyzed using the MIXED procedure of SAS specific for repeated measures with treatment and time as fixed effects and replicate as random. […]

[2] = tested on: offspring of dams that consumed endophyte-infected (E+) tall fescue seed; assay: Example 1: body composition (carcass) ultrasonography of calves at weaning; type: in vivo, cattle
Description: as §1, §2
Calves were weaned at 226±19 d of age. Gestation length, calf birth weight, 205-day adjusted weaning weight (205-d WW), carcass ultrasonography measures (ribeye area, REA: REA/CWT), percent intramuscular fat (IMF), rib fat thickness (UFAT), rump fat thickness (URUMP), post-weaning weights (recorded every 28 days between weaning and 84 days post-weaning), and post-weaning average daily gain (ADG) (between weaning and 84 days post-weaning) were evaluated in offspring (n=44) (FIGS. 6-13). Post-weaning calf weights were analyzed using the MIXED procedure of SAS specific for repeated measures with treatment and time as fixed effects and replicate as random. All other variables were analyzed using the MIXED procedure of SAS with treatment as a fixed effect and replicate as random with gestation length as a covariate for birth weight. Table 1 summarizes the gestation length and body weights of calves born to primiparous dams that consumed E- or E+ fescue seed with (M) or without melatonin (NM) supplementation during mid-late gestation. Data in Tables 1 and 2 are presented as LS MEANS±SEM.

[3] = tested on: beef cows that grazed toxic, endophyte-infected tall fescue (E+) during gestation; assay: Example 3: estimated daily milk volume and weight from four-hour milk yields; type: in vivo, cattle; conditions: d 56, P<0.03
Description: The same artificially inseminated cows were used in Example 3 that were used Example 2. As outlined above in Example 2, forty-nine (n=49) multiparous crossbred beef cows were artificially inseminated with sex-sorted semen (Y chromosome-bearing sperm) from a single Angus sire and maintained on pastures free from E+ fescue prior to the start of the treatment period. Pregnant cows were stratified into three treatment groups based on body weight, with two replications per treatment: non-toxic, novel endophyte-infected (NE+) tall fescue without melatonin supplementation (NE+/NM; n=15), E+ fescue with melatonin supplementation (E+/M; n=16), and E+ fescue without melatonin supplementation (E+/NM; n=18). The treatment period was over 70 d between May and July (d 147±1 to 217-1 of gestation). […]
After birth, calves were castrated within 48-72 hours. […] Protein, lactose, and triglycerides were evaluated in milk samples collected on d 28 and d 56.
(§3) Dam body weight (FIG. 32) and calf body weight (FIG. 34) were analyzed, using the MIXED procedure of SAS specific for repeated measures with treatment and time as fixed effects and replicate as a random effect. Dam prolactin, calf birth weight (FIG. 33), milk volume (FIGS. 35 and 37), and milk weight (FIGS. 36 and 38) were analyzed using the MIXED procedure of SAS with treatment as a fixed effect and replicate as a random effect.

[4] = tested on: pregnant beef cattle grazing toxic, endophyte-infected (E+) tall fescue; assay: Example 2: plasma prolactin by radioimmunoassay on d 70 of the treatment period; type: in vivo; conditions: cows on E+ fescue with melatonin 100 μg/kg BW, d 70 of treatment
Description: (§4) Multiparous crossbred cows were artificially inseminated with sex-sorted semen (Y chromosome-bearing sperm) from a single Angus sire and maintained on pastures free from E+ fescue prior to the start of the treatment period. Pregnant cows […] were assigned to one of three treatment groups based on body weight, with two replications per treatment: non-toxic, novel endophyte-infected (NE+) fescue without melatonin supplementation (NE+/NM; […]), E+ fescue with melatonin supplementation (E+/M; n=16), and E+ fescue without melatonin supplementation (E+/NM; n=18). Treatments were administered over a 70-d period between May and July (d 147±1 to 217±1 of gestation). A commercially available feed was mixed with or without melatonin [100 μg/kg body weight (BW)] and hand-fed daily.
Cows were weighed every fourteen (14) days relative to the start of the 70-d treatment period (FIG. 16-17): i.e., at d 0, 14, 28, 42, 56, and 70. […]
After the treatment period, cattle were maintained together as a single group on pastures that were free from E+ fescue. Body weights were analyzed using the MIXED procedure of SAS specific for repeated measures with treatment, time, and the interaction as fixed effects and replicate as random. Arterial hemodynamics and prolactin measures were analyzed using the MIXED procedure of SAS with treatment as a fixed effect and replicate as a random effect. […]

[5] = tested on: steer calves of pregnant beef cattle grazing toxic, endophyte-infected tall fescue (E+); assay: Example 3: body weight of steer calves born to dams grazing E+ fescue with melatonin supplementation; type: in vivo; conditions: for Calf weight: raw group average
Description: The same artificially inseminated cows were used in Example 3 that were used Example 2. As outlined above in Example 2, forty-nine (n=49) multiparous crossbred beef cows were artificially inseminated with sex-sorted semen (Y chromosome-bearing sperm) from a single Angus sire and maintained on pastures free from E+ fescue prior to the start of the treatment period. Pregnant cows were stratified into three treatment groups based on body weight, with two replications per treatment: non-toxic, novel endophyte-infected (NE+) tall fescue without melatonin supplementation (NE+/NM; n=15), E+ fescue with melatonin supplementation (E+/M; n=16), and E+ fescue without melatonin supplementation (E+/NM; n=18). The treatment period was over 70 d between May and July (d 147±1 to 217-1 of gestation). A commercially available feed was mixed with melatonin (100 μg/kg BW) or without melatonin and hand-fed to each cow daily. At the conclusion of the treatment period (56±18 d before parturition), cattle were moved to a single group and maintained on pastures free from E+ fescue, where they remained through weaning.
After birth, calves were castrated within 48-72 hours. Dams and steer calves were weighed every 28 days relative to calving (FIG. 31): i.e., at d 0, 28, 56, 84, 112, 140, and 168 (d 0=calving, <24 h). Table 3 depicts calf weight at preweaning, postweaning, and feedlot for NE+/NM, E/+M, and E/+NM (respectively, green, yellow, and red in FIG. 34B). Four-hour milk yields on d 28±3 and d 56±3 were used to estimate daily milk volume and weight. Protein, lactose, and triglycerides were evaluated in milk samples collected on d 28 and d 56.
as §3

[6] = tested on: pregnant beef cattle grazing toxic, endophyte-infected (E+) tall fescue; assay: Example 2: color Doppler ultrasound of uterine and coccygeal artery hemodynamics; type: in vivo
Description: as §4
Cows were weighed every fourteen (14) days relative to the start of the 70-d treatment period (FIG. 16-17): i.e., at d 0, 14, 28, 42, 56, and 70. Measurements of plasma prolactin were obtained on d 70 of the treatment period by radioimmunoassay (FIG. 18). Color Doppler ultrasound of the uterine and coccygeal artery was conducted at d 68±1 of the treatment period. Cardiac cycle waveforms from three independent ultrasound scans were used to determine the following uterine artery measures (FIGS. 19-25) and coccygeal artery measures (FIGS. 26-30): diameter (cm), pulsatility index (PI), resistance index (RI), blood flow (BF; mL/min; equal to MnV*vessel area*60 s), and blood flow as a proportion of BW (BF/BW).
After the treatment period, cattle were maintained together as a single group on pastures that were free from E+ fescue. Body weights were analyzed using the MIXED procedure of SAS specific for repeated measures with treatment, time, and the interaction as fixed effects and replicate as random. Arterial hemodynamics and prolactin measures were analyzed using the MIXED procedure of SAS with treatment as a fixed effect and replicate as a random effect. Ultrasonography day and order were tested as covariates and removed from the model […].

[7] = calves, melatonin main-effect mean, dams 100 μg/kg BW for 70 d, LS mean
[8] = calves at weaning, melatonin main-effect mean, LS mean
[9] = cows on E+ fescue with melatonin, d 68±1 of treatment

Compound: COc1ccc2[nH]cc(CCNC(C)=O)c2c1 [melatonin]
- calf weight at weaning recovered by feeding melatonin ([1]; Example 1, first-calf heifers, statistically adjusted means): approximately 53 lbs.
- share of the loss in calf weight at weaning recovered by feeding melatonin ([1]; Example 1, loss approximately 68 lbs., statistically adjusted means): over 75%
- birth weight of offspring, dams receiving melatonin relative to those without ([1]; P=0.02 as printed in text): increased
- 205-d WW (205-day adjusted weaning weight) [1, 7]: 176.95 kg
- Birth Weight [1, 7]: 25.90 kg
- 205-d weaning weight, toxic fescue seed with melatonin compared to toxic fescue seed without melatonin ([1]; fescue × melatonin interaction): increased
- post-weaning calf weight, toxic fescue seed with melatonin compared to toxic fescue seed without melatonin ([1]; fescue × melatonin interaction): increased
- Gestation Length ([1]; melatonin main-effect mean (E- and E+ diets pooled), 100 μg/kg BW in feed for 70 d mid-late gestation, LS mean): 272.00 days
- IMF (percent intramuscular fat) [2, 8]: 2.60%
- REA (ribeye area) [2, 8]: 5.87 in.^2
- UFAT (rib fat thickness) [2, 8]: 0.08 in.
- URUMP (rump fat thickness) [2, 8]: 0.08 in.
- ribeye area, toxic fescue seed with melatonin compared to toxic fescue seed without melatonin ([2]; fescue × melatonin interaction): increased
- estimated daily milk volume relative to NE+/NM dams [3]: decreased
- estimated daily milk weight relative to NE+/NM dams [3]: decreased
- Prolactin (plasma) [4]: 86.9 ± 14.9 ng/mL
- Calf weight ([5]; Birth): 74.43 lbs.
- Calf weight ([5]; D 28): 148.07 lbs.
- Calf weight ([5]; D 56): 212.07 lbs.
- Calf weight ([5]; D 84): 278.46 lbs.
- Calf weight ([5]; D 112): 347.15 lbs.
- Calf weight ([5]; D 140): 409.15 lbs.
- Calf weight ([5]; D 168): 476.77 lbs.
- Calf weight ([5]; D 196): 535.31 lbs.
- Calf weight ([5]; D +28 Post-Weaning): 641.23 lbs.
- Calf weight ([5]; D +56 Post-Weaning): 703.69 lbs.
- Calf weight ([5]; D +84 Post-Weaning): 766.62 lbs.
- Calf weight ([5]; D +112 Post-Weaning): 852.92 lbs.
- Calf weight ([5]; Feedlot - October 29): 1003.33 lbs.
- Calf weight ([5]; Weaning): 622.31 lbs.
- share of the loss in calf weight recovered by feeding melatonin ([5]; second study, 28 days prior to weaning, loss 28 lbs., statistically adjusted means): over 65%
- calf weight recovered by feeding melatonin ([5]; second study, 28 days prior to weaning, multiparous cows, statistically adjusted means): approximately 19 lbs.
- Coccygeal artery PI (pulsatility index) [6, 9]: 0.86±0.1
- Coccygeal artery RI (resistance index) [6, 9]: 0.53±0.02
- effects on uterine and coccygeal artery hemodynamics ([6]; pregnant multiparous crossbred beef cows grazing endophyte-infected tall fescue): limited effects
